Measurements: PubChem BioAssay (NCI)
Values joined by “and” are separate entries in the source; they are usually repeats but may differ in a detail not shown here. Identical values can stand only once.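 Five concentrations, 48 hours, 96-well plates. The concentration for 50% growth inhibition is given as GI50. TGI: total growth inhibition.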

Legend:
Experiment in all cases: NCI-60 cell line screen, 48 h
[1] = tested on: ACHN renal
[2] = tested on: OVCAR-3 ovarian
[3] = tested on: SF-539 CNS
[4] = tested on: A549 NSCLC
[5] = tested on: HCC-2998 colon
[6] = tested on: SK-MEL-2 melanoma
[7] = tested on: SF-295 CNS
[8] = tested on: OVCAR-4 ovarian
[9] = tested on: TK-10 renal
[10] = tested on: KM12 colon
[11] = tested on: CCRF-CEM leukemia
[12] = tested on: DMS 273 small cell lung
[13] = tested on: KM20L2 colon
[14] = tested on: SNB-75 CNS
[15] = tested on: UACC-257 melanoma
[16] = tested on: SK-MEL-28 melanoma
[17] = tested on: HCT-15 colon
[18] = tested on: RPMI-8226 leukemia
[19] = tested on: OVCAR-8 ovarian
[20] = tested on: A498 renal
[21] = tested on: MALME-3M melanoma
[22] = tested on: SNB-19 CNS
[23] = tested on: HT29 colon
[24] = tested on: HL-60(TB) leukemia
[25] = tested on: UO-31 renal
[26] = tested on: IGROV1 ovarian
[27] = tested on: MOLT-4 leukemia
[28] = tested on: SK-MEL-5 melanoma
[29] = tested on: M14 melanoma
[30] = tested on: NCI-H522 lung
[31] = tested on: HCT-116 colon
[32] = tested on: LOX IMVI melanoma
[33] = tested on: NCI-H460 lung
[34] = tested on: SN12C renal
[35] = tested on: LXFL 529 NSCLC
[36] = tested on: DLD-1 colon
[37] = tested on: EKVX NSCLC
[38] = tested on: UACC-62 melanoma
[39] = tested on: SNB-78 CNS
[40] = tested on: SW-620 colon
[41] = tested on: OVCAR-5 ovarian
[42] = tested on: SK-OV-3 ovarian
[43] = tested on: HOP-92 NSCLC
[44] = tested on: 786-0 renal
[45] = tested on: HOP-62 NSCLC
[46] = tested on: COLO 205 colon
[47] = tested on: NCI-H23 lung
[48] = tested on: K-562 leukemia
[49] = tested on: U251 CNS
[50] = tested on: SF-268 CNS

SMILES: CC(C)CC(=O)[O-].CC(C)CC(=O)[O-].N.N.N.N.[Co+3].[O-][Cl+3]([O-])([O-])[O-]
- GI50 [1]: > 100 µM
- TGI [1]: > 100 µM
- GI50 [2]: > 100 µM
- TGI [2]: > 100 µM
- GI50 [3]: > 100 µM
- TGI [3]: > 100 µM
- GI50 [4]: > 100 µM
- TGI [4]: > 100 µM
- GI50 [5]: > 100 µM
- TGI [5]: > 100 µM
- GI50 [6]: > 100 µM
- TGI [6]: > 100 µM
- GI50 [7]: > 100 µM
- TGI [7]: > 100 µM
- GI50 [8]: > 100 µM
- TGI [8]: > 100 µM
- GI50 [9]: > 100 µM
- TGI [9]: > 100 µM
- GI50 [10]: > 100 µM
- TGI [10]: > 100 µM
- GI50 [11]: > 100 µM
- TGI [11]: > 100 µM
- GI50 [12]: > 100 µM
- TGI [12]: > 100 µM
- GI50 [13]: > 100 µM
- TGI [13]: > 100 µM
- GI50 [14]: > 100 µM
- TGI [14]: > 100 µM
- GI50 [15]: > 100 µM
- TGI [15]: > 100 µM
- GI50 [16]: > 100 µM
- TGI [16]: > 100 µM
- GI50 [17]: > 100 µM
- TGI [17]: > 100 µM
- GI50 [18]: > 100 µM
- TGI [18]: > 100 µM
- GI50 [19]: > 100 µM
- TGI [19]: > 100 µM
- GI50 [20]: > 100 µM
- TGI [20]: > 100 µM
- GI50 [21]: > 100 µM
- TGI [21]: > 100 µM
- GI50 [22]: > 100 µM
- TGI [22]: > 100 µM
- GI50 [23]: > 100 µM
- TGI [23]: > 100 µM
- GI50 [24]: > 100 µM
- TGI [24]: > 100 µM
- GI50 [25]: 84.7 µM and > 100 µM
- TGI [25]: > 100 µM
- GI50 [26]: > 100 µM
- TGI [26]: > 100 µM
- GI50 [27]: > 100 µM
- TGI [27]: > 100 µM
- GI50 [28]: > 100 µM
- TGI [28]: > 100 µM
- GI50 [29]: > 100 µM
- TGI [29]: > 100 µM
- GI50 [30]: 51 µM and 90 µM
- TGI [30]: > 100 µM
- GI50 [31]: > 100 µM
- TGI [31]: > 100 µM
- GI50 [32]: > 100 µM
- TGI [32]: > 100 µM
- GI50 [33]: > 100 µM
- TGI [33]: > 100 µM
- GI50 [34]: > 100 µM
- TGI [34]: > 100 µM
- GI50 [35]: > 100 µM
- TGI [35]: > 100 µM
- GI50 [36]: > 100 µM
- TGI [36]: > 100 µM
- GI50 [37]: > 100 µM
- TGI [37]: > 100 µM
- GI50 [38]: > 100 µM
- TGI [38]: > 100 µM
- GI50 [39]: > 100 µM
- TGI [39]: > 100 µM
- GI50 [40]: > 100 µM
- TGI [40]: > 100 µM
- GI50 [41]: > 100 µM
- TGI [41]: > 100 µM
- GI50 [42]: > 100 µM
- TGI [42]: > 100 µM
- GI50 [43]: > 100 µM
- TGI [43]: > 100 µM
- GI50 [44]: > 100 µM
- TGI [44]: > 100 µM
- GI50 [45]: > 100 µM
- TGI [45]: > 100 µM
- GI50 [46]: > 100 µM
- TGI [46]: > 100 µM
- GI50 [47]: > 100 µM
- TGI [47]: > 100 µM
- GI50 [48]: > 100 µM
- TGI [48]: > 100 µM
- GI50 [49]: > 100 µM
- TGI [49]: > 100 µM
- GI50 [50]: > 100 µM
- TGI [50]: > 100 µM
